This is an account of results in PubChem BioAssay (NCI).

Some test systems named below: OVCAR-8 ovarian; SR leukemia; UACC-257 melanoma; HL-60(TB) leukemia; KM12 colon; SK-MEL-5 melanoma; SNB-75 CNS; SK-MEL-2 melanoma; SF-268 CNS; COLO 205 colon.
What all share (assay): DTP human tumour cell line panel, 48 h

Several values for one entry are separate records, joined by “and”; a condition that tells them apart may be missing. Equal values may be shown once.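 Exposure lasted 48 hours, with cells grown in 96-well plates and compounds tested at five concentrations. GI50: concentration for 50% inhibition of growth. TGI: concentration producing complete growth inhibition.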

For orientation: TGI means the concentration at which net growth stops. Read a high TGI as less potent growth arrest. Take `O=C1CCNC(=O)NC1`: the TGI in the assay on OVCAR-8 ovarian, in the assay on SR leukemia, in the assay with UACC-257 melanoma, in the assay on HL-60(TB) leukemia, in the assay on KM12 colon and with SK-MEL-5 melanoma was above 100 µM throughout. The concentration for total growth inhibition (TGI) in the assay on SNB-75 CNS, in the assay on SK-MEL-2 melanoma, in the assay on SF-268 CNS and in the assay with COLO 205 colon was above 100 µM each time.

As to `COc1cc2cnc(-c3ccccc3)cc2cc1OC`, the TGI with OVCAR-8 ovarian is above 100 µM; with SR leukemia it was 45.8 µM; in the assay on UACC-257 melanoma it was 53.3 µM; with HL-60(TB) leukemia, 59.7 µM; in the assay with KM12 colon it was 61.2 µM; in the assay with SK-MEL-5 melanoma, 27.7 µM. The TGI in the assay with SNB-75 CNS was above 100 µM; in the assay with SK-MEL-2 melanoma, 54.6 µM; with SF-268 CNS it was above 100 µM; in the assay on COLO 205 colon it was 58.5 µM.

For the compound `Cc1ccc(/C=C/C(=O)c2ccc([N+](=O)[O-])cc2)cc1`, the TGI in the assay with OVCAR-8 ovarian, with SR leukemia, in the assay with UACC-257 melanoma, in the assay with HL-60(TB) leukemia, in the assay with KM12 colon and with SK-MEL-5 melanoma was above 100 µM each time. The TGI in the assay on SNB-75 CNS, in the assay with SK-MEL-2 melanoma, in the assay on SF-268 CNS and in the assay with COLO 205 colon was above 100 µM each time.

Broadly, the GI50 is the concentration giving 50% growth inhibition. `Cc1ccc(-c2cc(-c3ccc(C)cc3)nc(N3CCN(CCNc4ccnc5cc(Cl)ccc45)CC3)n2)cc1`: the GI50 with OVCAR-8 ovarian is 2.17 µM; with SR leukemia it was 0.675 µM; in the assay on UACC-257 melanoma, 1.91 µM; in the assay on HL-60(TB) leukemia, 2.42 µM; with KM12 colon, 5.7 µM; in the assay with SK-MEL-5 melanoma, 6.65 µM. Moreover, the GI50 was 0.949 µM in the assay with SNB-75 CNS, 7.89 µM in the assay with SK-MEL-2 melanoma, 4.88 µM in the assay on SF-268 CNS and 1.71 µM in the assay with COLO 205 colon. Also, the TGI with OVCAR-8 ovarian was 9.65 µM; in the assay on SR leukemia, above 50 µM; in the assay on UACC-257 melanoma, 6.88 µM; in the assay with HL-60(TB) leukemia, 11.6 µM; in the assay with KM12 colon, 39.2 µM; with SK-MEL-5 melanoma, 18.3 µM. The TGI with SNB-75 CNS stood at 2.23 µM; in the assay on SK-MEL-2 melanoma, 20.3 µM; with SF-268 CNS, 21.9 µM; in the assay with COLO 205 colon, 8.76 µM.

Turning to `CCCC(C)c1c(Cl)nc(Cl)nc1Cl` (stereo not given), the TGI is 55.9 µM in the assay with OVCAR-8 ovarian; above 100 µM with SR leukemia; 26.2 µM in the assay with UACC-257 melanoma; above 100 µM in the assay on HL-60(TB) leukemia; 10.2 µM in the assay with KM12 colon; 13.9 µM in the assay with SK-MEL-5 melanoma. The TGI in the assay on SNB-75 CNS is 27.5 µM; in the assay with SK-MEL-2 melanoma, above 100 µM; in the assay with SF-268 CNS, above 100 µM; in the assay on COLO 205 colon it was 15.8 µM.

On to `O=C1/C(=C/c2ccc(Cl)cc2)CCC1CN1CCOCC1` (stereo not given), for which the TGI turned out to be 17.2 µM with OVCAR-8 ovarian; 5.29 µM in the assay with SR leukemia; 21.8 µM with UACC-257 melanoma; 3.8 µM in the assay on HL-60(TB) leukemia; 10.4 µM with KM12 colon; 26.1 µM in the assay on SK-MEL-5 melanoma. For the same compound, the TGI in the assay on SNB-75 CNS was 37.9 µM; with SK-MEL-2 melanoma, 33.8 µM; in the assay with SF-268 CNS, 45.9 µM; with COLO 205 colon it was above 25.3 µM.

Turning to `CC[C@H](C)[C@H](NC(=O)NC(C)(C)C)C(=O)N(C)[C@H](C[C@@H](OC(C)=O)c1nc(C(=O)N[C@@H](Cc2ccccc2)C[C@H](C)C(=O)OC)cs1)C(C)C`, the GI50 was 0.936 µM in the assay with OVCAR-8 ovarian; 0.141 µM with SR leukemia; 4.67 µM with UACC-257 melanoma; 0.374 µM in the assay on HL-60(TB) leukemia; 0.682 µM in the assay on KM12 colon; 0.139 µM in the assay with SK-MEL-5 melanoma. The concentration for 50% growth inhibition (GI50) in the assay with SNB-75 CNS was 0.293 µM; with SK-MEL-2 melanoma it was 0.405 µM; in the assay with SF-268 CNS, 0.867 µM; with COLO 205 colon, 0.446 µM. Besides, the TGI with OVCAR-8 ovarian is above 25 µM; in the assay with SR leukemia, above 11.4 µM; with UACC-257 melanoma, above 25 µM; in the assay with HL-60(TB) leukemia, 1.56 µM; in the assay on KM12 colon, above 25 µM; with SK-MEL-5 melanoma, 0.604 µM. Further, the TGI in the assay with SNB-75 CNS was above 25 µM; in the assay with SK-MEL-2 melanoma, above 25 µM; in the assay with SF-268 CNS, above 25 µM; in the assay with COLO 205 colon it was 1.12 µM.

With `Cc1ccc2nc3c(n2c1)C(=O)C(=O)c1ccccc1-3`, the GI50 in the assay on OVCAR-8 ovarian is 0.238 µM; with SR leukemia it was 0.264 µM; with UACC-257 melanoma it was 0.146 µM; with HL-60(TB) leukemia, 0.17 µM; in the assay on KM12 colon, 0.574 µM; in the assay on SK-MEL-5 melanoma it was 0.112 µM. In addition, the GI50 in the assay on SNB-75 CNS is 0.266 µM; in the assay on SK-MEL-2 melanoma, 0.293 µM; in the assay on SF-268 CNS it was 0.4 µM; in the assay with COLO 205 colon it was 1.91 µM. Also, the TGI in the assay with OVCAR-8 ovarian was 0.655 µM; in the assay with SR leukemia it was 3.33 µM; in the assay with UACC-257 melanoma it was 0.382 µM; in the assay with HL-60(TB) leukemia it was 0.602 µM; in the assay with KM12 colon, 8.28 µM; in the assay with SK-MEL-5 melanoma, 0.244 µM. Also, the TGI in the assay on SNB-75 CNS worked out at 0.618 µM; with SK-MEL-2 melanoma it was 0.849 µM; in the assay on SF-268 CNS it was 4.01 µM; in the assay with COLO 205 colon, 3.76 µM.

As to `COc1ccc(C2=N[C@@H](c3ccc(Cl)cc3)[C@@H](c3ccc(Cl)cc3)N2C(=O)N2CCNC(=O)C2)c(OC(C)C)c1`, the GI50 is 15.2 µM and 15.1 µM and 14.8 µM in the assay on OVCAR-8 ovarian; 11.7 µM and 2.07 µM and 1.19 µM in the assay on SR leukemia; 13.2 µM and 4.26 µM and 3.98 µM in the assay with UACC-257 melanoma; 15.1 µM and 18.1 µM and 18.5 µM in the assay on HL-60(TB) leukemia; 15.9 µM with KM12 colon; 14.1 µM and 5.35 µM and 6.56 µM in the assay with SK-MEL-5 melanoma. Further, the GI50 in the assay with SNB-75 CNS is 13.4 µM and 11.8 µM and 11.9 µM; in the assay with SK-MEL-2 melanoma it was 16.3 µM and 14.6 µM and 15.9 µM; in the assay on SF-268 CNS it was 13.9 µM and 13.1 µM and 14 µM; in the assay on COLO 205 colon, 15 µM and 16.6 µM and 15.8 µM. Also, the TGI was 31.1 µM and 30.9 µM and 30.1 µM with OVCAR-8 ovarian; 36.5 µM and 23.9 µM and 17 µM in the assay on SR leukemia; 26.5 µM and 19.3 µM and 18.3 µM in the assay on UACC-257 melanoma; 35.8 µM and 42.3 µM and 51 µM with HL-60(TB) leukemia; 32 µM and 30 µM and 30.6 µM with KM12 colon; 27.2 µM and 17.7 µM and 19.6 µM in the assay on SK-MEL-5 melanoma. The TGI in the assay on SNB-75 CNS was 26.5 µM and 25.1 µM and 26.2 µM; in the assay with SK-MEL-2 melanoma, 30.9 µM and 29 µM and 30.6 µM; with SF-268 CNS it was 28 µM and 26.5 µM and 27.9 µM; with COLO 205 colon, 29.4 µM and 34.6 µM and 32.2 µM.
